Assay [1] relates to collagen or ADP-induced ex vivo platelet aggregation. Put plainly: Ex Vivo Dog Study: ex vivo platelet aggregation. In kind it is in vivo. The procedure:
Adult mongrel dogs (8-13 kg) were anesthetized with sodium pentobarbital ([…], i.v.) and artificially respired. Arterial blood pressure and heart rate were measured using a Millar catheter-tip pressure transducer inserted in a femoral artery Another Millar transducer was placed in the left ventricle (LV) via a carotid artery to measure LV end diastolic pressure and indices of myocardial contractility. A lead electrocardiogram was recorded from limb electrodes. Catheters were placed in a femoral artery and vein to sample blood and infuse drugs, respectively. Responses were continuously monitored using a Modular Instruments data aquisition system.
Separate blood samples (1.5 ml) were withdrawn in EDTA to determine hematocrit and cell counts (platelets, RBC's and white cells). Template bleeding times were obtained from the buccal surface using a symplate incision devise and Whatman filter paper.
Aggregation of PRP was performed using a BioData aggregometer. Aggregation of whole blood used a Chronolog impedance aggregometer. PT and APTT were determined on either a BioData or ACL 3000+ coagulation analyser. Cells were counted with a Sysmex K-1000.
Compounds were solubilized in a small volume of dimethylformamide (DMF) and diluted with saline to a final concentration of 10% DMF. Compounds were administered by the intravenous route with a Harvard infusion pump. […] Data were obtained after each dose and in 30 min intervals following the end of drug administration. Oral doses were administered as aqueous solutions via syringe.

For assay [2], the system named is thrombus formation. The assay can be described thus: canine arteriovenous shunt model of thrombosis. In kind it is in vivo. Particulars: iv infusion.
For assay [3], the system named is gel-filtered platelets (thrombin-induced aggregation). The assay can be described thus: In Vitro Inhibition of Thrombin-Induced Gel-Filtered Platelet Aggregation Assay. The assay is classed as cell-based. To be noted: Homo sapiens. The protocol:
In Vitro Inhibition of Thrombin-Induced Gel-Filtered Platelet Aggregation Assay
The percentage of platelet aggregation is calculated as an increase in light transmission of compound-treated platelet concentrate vs. control-treated platelet concentrate. Human blood is obtained from drug free, normal donors into tubes containing 0.13M sodium citrate. Platelet rich plasma (PRP) is collected by centrifugation of whole blood at 200×g for 10 min at 25° C. The PRP (5 mL) is gel filtered through Sepharose 2B (bed volume 50 mL), and the platelet count is adjusted to 2×10^7 platelets per sample. The following constituents are added to a siliconized cuvette: concentrated platelet filtrate and Tyrode's buffer (0.14M NaCl, 0.0027M KCl, 0.012M NaHCO3,0.76 mM Na2 HPO4, 0.0055M glucose, 2 mg/mL BSA and 5.0 mM HEPES @ pH 7.4) in an amount equal to 350 μl, 50 μl of 20 mM calcium and 50 μl of the test compound. Aggregation is monitored in a BIODATA aggregometer for the 3 min following the addition of agonist (thrombin 50 μl of 1 unit/mL).

Assay [4] concerns the target T1, GPIIb/IIIa (Homo sapiens, UniProt P05106+P08514). The assay can be described thus: In Vitro Solid Phase Purified Glycoprotein IIb/IIIa Binding Assay (fibrinogen binding). The protocol:
In Vitro Solid Phase Purified Glycoprotein IIB/IIIA Binding Assay
The plate is covered and incubated overnight at 4° C. The GPIIb/IIIa solution is discarded and 150 μl of 5% BSA is added and incubated at RT for 1-3 h. The plate is washed extensively with modified Tyrodes buffer. Biotinylated fibrinogen (25 μl/well) at 2×final concentration is added to the wells that contain the test compounds (25 μl/well). The plate is covered and incubated at RT for 2-4 h. Twenty minutes prior to incubation completion, one drop of Reagent A (Vecta Stain ABC Horse Radish Peroxidase kit, Vector Laboratories, Inc.) and one drop Reagent B are added with mixing to 5 mL modified Tyrodes buffer mix and let stand. The ligand solution is discarded and the plate washed (5×200 μl/well) with modified Tyrodes buffer. Vecta Stain HRP-Biotin-Avidin reagent (50 μl/well, as prepared above) is added and incubated at RT for 15 min. The Vecta Stain solution is discarded and the wells washed ([…]) with modified Tyrodes buffer. Developing buffer (10 mL of 50 mM citrate/phosphate buffer @ pH 5.3, 6 mg Q-phenylenediamine, 6 μl 30% H2 O2; 50 μl/well) is added and incubated at RT for 3-5 min, and then 2N H2 SO4 (50 μl/well) is added. The absorbance is read at 490 nm.

The subject of assay [5] is platelets (thrombin-induced platelet aggregation). To be noted: L. Alig, J. Med. Chem. 1992, 35, 4393; read-out: IC50 against in vitro thrombin-induced platelet aggregation; cited from earlier work.
For assay [6], the target named is T1, GPIIb/IIIa. To be noted: background statement; cited from earlier work.

Where a name gives a salt, the structure may show the parent alone.

We go through four compounds from patent publication US6069254A, “Carboxamide derivatives of piperidine for the treatment of thrombosis disorders” (Ortho Pharmaceutical Corp., priority 1997, dated 2000).

One may read the IC50 as the concentration at which inhibition is half-maximal.

With `O=C(O)C[C@H](NC(=O)[C@@H]1CCCN(C(=O)CCC2CCNCC2)C1)c1ccc2c(c1)OCO2` [Compound 16, N-3-(4-Piperidinepropionyl)-R-(-)-nipecotyl-[(S)-3-amino-3-(3,4-methylenedioxyphenyl)]propionic acid.HCl], the “Duration of >50% inhibition of collagen or ADP induced ex vivo platelet aggregation” value was 60 min in assay [1] (intravenous, 0.1 mpk); 60 min in assay [1] (oral, 1 mpk); above 180 min in assay [1] (oral, 3 mpk). In addition, the “thrombus weight vs. vehicle control” value in assay [2] (10 μg/kg/min cumulative dose) is listed as 75%; in assay [2] (30 μg/kg/min cumulative dose), 37%; in assay [2] (100 μg/kg/min cumulative dose), 12%. In assay [2], the “efficacy in canine arteriovenous shunt model of thrombosis” value is on record as “have shown efficacy in a canine arteriovenous shunt model of thrombosis in a dose-dependent fashion”. Besides, the inhibition at 50 µM in assay [3] (read-out: Platelet Aggregation % Inh. (50 μM)) was found to be 94%; in assay [4] (read-out: Fibrinogen Binding % Inh. (50 μM)), 100%. The IC50 in assay [3] (read-out: Platelet Aggregation IC50) stood at 28 nM; in assay [4] (isolated GPIIb/IIIa, biotinylated fibrinogen, read-out: Fibrinogen Binding IC50), 0.5 nM.
With `CN(CC(=O)c1ccc(OCC(=O)O)c(OCC(=O)O)c1)C(=O)c1ccc(C(=N)N)cc1` [Ro-438857], the IC50 in assay [5] is 94 nM.
Turning to Arg-Gly-Asp [Arg-Gly-Asp (RGD)], in assay [6], the “inhibition of fibrinogen binding to GPIIb/IIIa” value is “shown to inhibit fibrinogen binding to GPIIb/IIIa”.
In the case of “HHLGGAKQAGDV [γ-chain peptide region of fibrinogen, γ400-411]”, the “inhibition of fibrinogen binding to GPIIb/IIIa” value in assay [6] was “shown to inhibit fibrinogen binding to GPIIb/IIIa”.
